Measured values as given in patent publication US20210022342A1, “THE USE OF SAFENERS TO IMPROVE RESISTANCE OF RICE CROP TO HERBICIDES” (Adama Agan Ltd., priority 2018, published 2021).

Key:
Type in all cases: in vivo
[1] = tested on: mutant rice (ML0831265-01493, ATCC deposit PTA-12933, mutation G2096S); experiment: Tank mixes of safeners with propaquizafop or quizalofop: regrowth of mutant rice
Experimental: (§1) Seeds of a proprietary ACCase resistant rice variety, i.e. RTA1, was used. RTA1, ML0831265-01493 (ATCC deposit PTA-12933, mutation G2096S) variety rice seeds were supplied by RiceTec. RTA1 rice cultivar contains a single mutation in the ACCase gene that confer ACCase resistance. The mutation makes the enzyme insensitive to quizalofop.
(§2) Mutant rice seeds were planted in commercial greenhouse soil mix in 10×10×10 cm plastic pots. 250 mL of soil was put into each pot, then the seeds were placed on top of the soil and the seeds were covered with 100-150 mL of soil. Approximately 8-10 seeds were planted per pot. The pots were then watered with 100 mL of a mixture of Miracle Grow and Fertiplus (iron supplement). The pots were placed in the greenhouse (38° C./20° C. day/night, 14 h photoperiod with supplemental light). The average light intensity in the greenhouse was 150 μM/m^2/sec.
Plants were grown until 10 days after planting and then the pots were transferred to trays and the plants were grown under water. :Plants were treated when they reached the 3-5 leaf stage.
Safeners were tank mixed with the herbicide in the spray bottle.
(§3) Four days after treatment, the tops of the plants were cut off so that approximately 2.5 cm of plant from the top of the soil remain. The plants were allowed to regrow for 3 days at which time the amount of regrowth was weighed by measuring the amount of fresh weight of tissue that regrew. Comparing the weight of regrowth of shoots after cutting indicates the level of phytotoxicity the herbicide had on the mutant rice plant and the increased level of resistance of the mutant rice to the herbicide when the herbicide was applied in combination with the safener.
The safeners were applied in various w/w ratios with the ACCase inhibiting herbicides to the rice plant.

[2] = tested on: ACCase inhibitor resistant rice seeds (ML0831265-01493 (ATCC deposit PTA-12933, mutation G2096S)); experiment: Safener seed treatment with propaquizafop or quizalofop: regrowth of resistant rice
Experimental: as §1, §2
Plants were grown until 10 days after planting and then the pots were transferred to trays and the plants were grown under water. :Plants were treated when they reached the 3-5 leaf stage. […]
as §3
The safeners were also applied in various w/w ratios of the ACCase inhibiting herbicides to the rice seeds.

mutant rice = experiment: Regrowth of mutant rice under low and high light intensity
From the text: as §3

[3] = tested on: HPPD resistant rice variety; experiment: HPPD herbicides with isoxadifen, regrowth of HPPD resistant mutant rice
Experimental: The rice cultivar contains mutation(s) in the HPPD gene which makes the enzyme insensitive to mesotrione and/or tembotrione and/or isoxaflutole.
Seed of HPPD resistant rice variety is planted in a commercial greenhouse soil mix in 10×10×10 cm plastic pots. 250 mL of soil is put into each pot, then the seed is placed on top of the soil and the seed is covered with 100-150 mL of soil. Approximately 8-10 seeds are planted per pot. The pots are then watered with 100 mL of a mixture of Miracle Grow and Fertiplus (iron supplement). The pots are placed in the greenhouse (38° C./20° C. day/night, 14 h photoperiod with supplemental light). The average light intensity in the greenhouse was 150 μM/m^2/sec.
Plants are grown until 10 days after planting and then the pots are transferred to trays and plants are grown under water. Plants are treated when they reach the 3-5 leaf stage.
Generally, plants are treated with 50-250 g/ha of mesotrione or tembotrione or isoxaflutole through a moving nozzle spray system in a spray volume of 200 l/ha or 187 l/ha. Isoxadifen is tank mixed with the herbicide in the spray bottle. The weight ratio of the safener to the herbicide in the tank mix is from 1:1 to 1:5.
Four days after reatment, the tops of the plants are cut off to approximately 3 cm from the top of the soil. The plants are allowed to regrow for 7 days at which time the amount of regrowth is measured by cutting any growth above 3 cm above the top of soil and weighing the tissue that regrew.
Efficacy test is conducted to determine the effect of mesotrione on mutant rice in the presence of isoxadifen.
The weight the regrown shoot on mutant rice applied with mesotrione is compared with the weight of regrown shoot on mutant rice applied with mesotrione and isoxadifen at various rates.

weedy rice = experiment: Regrowth of weedy rice after quizalofop ethyl; conditions: at the rates tested
From the text: The amount of plant regrowth observed for the ACCase resistant rice is compared to the amount of regrowth observed for the weedy rice. The weedy rice was killed by quizalofop ethyl at the rates tested, so there was no regrowth.

[4] = tested on: wild type rice (Non-Traited Rice); experiment: Quizalofop dose response with or without isoxadifen, regrowth, wild type rice; conditions: calculated effect of safener alone, quizalofop 5.2 g/ha
[5] = tested on: herbicide resistant rice crop (G2096S substitution, ML0831265-01493); experiment: Quizalofop dose response with or without isoxadifen, regrowth, herbicide resistant rice
Experimental: Four days after treatment, the tops of the plants were cut off so that approximately 2.5 cm of plant from the top of the soil remain. The plants were allowed to regrow for 3 days at which time the amount of regrowth was weighed by measuring the amount of fresh weight of tissue that regrew.
The improvement in regrowth was calculated by subtracting the regrowth from a) wild type rice and wild type rice with isoxadifen; b) herbicide resistant rice; and c) herbicide resistant rice and isoxadifen.
Calculations were done for each application rate of quizalofop. The efficacy of safener alone and mutation alone on decreasing herbicide effect/increasing herbicide resistance were calculated. The relative fresh weight re-growth is the percentage of activity (for Colby).
The re-growth data was implemented in curve and the synergistic effect was calculated.
in which E represents the percentage of regrowth expected for the application of safener on mutant rice crop at the defined doses of herbicide. X is the percentage of regrowth for the application of safener on wildtype rice crop at the defined doses of herbicide. Y is the percentage of regrowth for mutant rice crop at the defined doses of herbicide without safener application. When the percentage of regrowth observed for the application of safener on mutant rice crop at the defined doses of herbicide is greater than expected as calculated using the Colby equation, there is a synergistic effect.

[6] = isoxaflutole with isoxadifen vs same mutant rice not treated with isoxadifen
[7] = mesotrione with isoxadifen vs same mutant rice not treated with isoxadifen
[8] = tembotrione with isoxadifen vs same mutant rice not treated with isoxadifen

O=C(O)C1=NOC(c2ccccc2)(c2ccccc2)C1 [Isoxadifen, isoxadifen]
Regrowth (fresh weight mg) ([1]; tank mix with propaquizafop 50 g/ha, safener 12.5 g/ha): 38 mg
Regrowth (fresh weight mg) ([1]; tank mix with propaquizafop 50 g/ha, safener 25 g/ha): 258 mg
Regrowth (fresh weight mg) ([1]; tank mix with propaquizafop 50 g/ha, safener 50 g/ha): 310 mg
Regrowth (fresh weight mg) ([1]; tank mix with propaquizafop 50 g/ha, safener 100 g/ha): 488 mg
Regrowth (fresh weight mg) ([1]; tank mix with quizalofop 40 g/ha, safener 12.5 g/ha): 87 mg
Regrowth (fresh weight mg) ([1]; tank mix with quizalofop 40 g/ha, safener 25 g/ha): 285 mg
Regrowth (fresh weight mg) ([1]; tank mix with quizalofop 40 g/ha, safener 50 g/ha): 335 mg
Regrowth (fresh weight mg) ([1]; tank mix with quizalofop 40 g/ha, safener 100 g/ha): 462 mg
Regrowth (fresh weight mg) ([2]; propaquizafop, safener seed treatment 0.5 g/kg of seed): 133 mg
Regrowth (fresh weight mg) ([2]; propaquizafop, safener seed treatment 1 g/kg of seed): 170 mg
Regrowth (fresh weight mg) ([2]; propaquizafop, safener seed treatment 2 g/kg of seed): 298 mg
Regrowth (fresh weight mg) ([2]; quizalofop, safener seed treatment 0.5 g/kg of seed): 165 mg
Regrowth (fresh weight mg) ([2]; quizalofop, safener seed treatment 1 g/kg of seed): 103 mg
Regrowth (fresh weight mg) ([2]; quizalofop, safener seed treatment 2 g/kg of seed): 80 mg
regrowth of the mutant rice (mutant rice; high light intensity, quizalofop with isoxadifen, any of the rates tested): regrowth was not significant affected
Regrowth (mg FW) (mutant rice; high light intensity, with safener, herbicide 0 g/ha): 540 mg FW
reduction in growth of the mutant rice (mutant rice; low light intensity, 40 g/ha quizalofop with 100 g/ha isoxadifen): less than 20%
Regrowth (mg FW) (mutant rice; low light intensity, with safener, herbicide 0 g/ha): 183 mg FW
level of resistance of the mutant rice to isoxaflutole [3, 6]: significantly increases the level of resistance
phytotoxicity of isoxaflutole on the mutant rice [3, 6]: significantly reduces the phytotoxicity
level of resistance of the mutant rice to mesotrione [3, 7]: significantly increases the level of resistance
phytotoxicity of mesotrione on the mutant rice [3, 7]: significantly reduces the phytotoxicity
level of resistance of the mutant rice to tembotrione [3, 8]: significantly increases the level of resistance
phytotoxicity of tembotrione on the mutant rice [3, 8]: significantly reduces the phytotoxicity

CCOC(=O)[C@@H](C)Oc1ccc(Oc2cnc3cc(Cl)ccc3n2)cc1 [Quizalofop, quizalofop P-ethyl]
Regrowth (fresh weight mg) ([1]; quizalofop 40 g/ha, no safener): 70 mg
Regrowth (fresh weight mg) ([2]; quizalofop, seeds without safener): 107 mg
Effect on weedy rice (regrowth) (weedy rice): killed
inhibition of growth of the mutant rice (mutant rice; high light intensity (800-1000 uM/m2/sec), 40 g/ha quizalofop, no safener): no inhibition of growth
reduction in growth of the mutant rice (mutant rice; high light intensity, 70 g/ha quizalofop, no safener): over 80%
Regrowth (mg FW) (mutant rice; high light intensity, no safener, herbicide 30 g/ha): 447 mg FW
Regrowth (mg FW) (mutant rice; high light intensity, no safener, herbicide 40 g/ha): 533 mg FW
Regrowth (mg FW) (mutant rice; high light intensity, no safener, herbicide 50 g/ha): 220 mg FW
Regrowth (mg FW) (mutant rice; high light intensity, no safener, herbicide 60 g/ha): 107 mg FW
Regrowth (mg FW) (mutant rice; high light intensity, no safener, herbicide 70 g/ha): 76.7 mg FW
Regrowth (mg FW) (mutant rice; high light intensity, with safener (isoxadifen), herbicide 30 g/ha): 630 mg FW
Regrowth (mg FW) (mutant rice; high light intensity, with safener (isoxadifen), herbicide 40 g/ha): 533 mg FW
Regrowth (mg FW) (mutant rice; high light intensity, with safener (isoxadifen), herbicide 50 g/ha): 603 mg FW
Regrowth (mg FW) (mutant rice; high light intensity, with safener (isoxadifen), herbicide 60 g/ha): 427 mg FW
Regrowth (mg FW) (mutant rice; high light intensity, with safener (isoxadifen), herbicide 70 g/ha): 540 mg FW
reduction in growth of the mutant rice (mutant rice; low light intensity (150 uM/m2/sec), 40 g/ha quizalofop, no safener): 80%
Regrowth (mg FW) (mutant rice; low light intensity, no safener, herbicide 30 g/ha): 30 mg FW
Regrowth (mg FW) (mutant rice; low light intensity, no safener, herbicide 40 g/ha): 0 mg FW
Regrowth (mg FW) (mutant rice; low light intensity, no safener, herbicide 50 g/ha): 0 mg FW
Regrowth (mg FW) (mutant rice; low light intensity, no safener, herbicide 60 g/ha): 0 mg FW
Regrowth (mg FW) (mutant rice; low light intensity, no safener, herbicide 70 g/ha): 0 mg FW
Regrowth (mg FW) (mutant rice; low light intensity, with safener (isoxadifen), herbicide 30 g/ha): 117 mg FW
Regrowth (mg FW) (mutant rice; low light intensity, with safener (isoxadifen), herbicide 40 g/ha): 100 mg FW
Regrowth (mg FW) (mutant rice; low light intensity, with safener (isoxadifen), herbicide 50 g/ha): 150 mg FW
Regrowth (mg FW) (mutant rice; low light intensity, with safener (isoxadifen), herbicide 60 g/ha): 50 mg FW
Regrowth (mg FW) (mutant rice; low light intensity, with safener (isoxadifen), herbicide 70 g/ha): 30 mg FW
Efficacy at ED50 of mutant- 5.2 g/ha (%) [4]: 26%
Calculated efficacy base on Colby (%) ([5]; expected for mutant & safener, quizalofop 5.2 g/ha): 63%
additive effect of safener and mutation, increase in ED50 ([5]; expected, compared to wildtype rice without safener): 5.1 fold
observed increase in ED50 ([5]; herbicide resistant rice with safener compared to wildtype rice without safener): 31.4 fold
Observed efficacy (%) ([5]; mutant & safener, quizalofop 5.2 g/ha): 92%
Efficacy at ED50 of mutant- 5.2 g/ha (%) ([5]; mutant alone, quizalofop 5.2 g/ha): 50%
increase in tolerance to herbicide (ED50) by the mutation ([5]; mutant rice vs wildtype rice, no safener): 2.4 fold
